Experimental data from patent publication US20130109682A1, “CYCLIC ETHER COMPOUNDS USEFUL AS KINASE INHIBITORS” (NOVARTIS AG, priority 2010, published 2013).

Experiments:
Assay type in all cases: biochemical
[1] = target: GSK3β (Homo sapiens, UniProt P49841); test: GSK3β ATP depletion assay; settings: ATP depletion assay; read-out: GSK3b IC50
Summary of the method: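 Human GSK3β (5 nM) preincubated 15 min with 10 μM biotinylated phospho-CREB peptide in pH 7.5 Tris buffer (15 mM MgCl2, 1 mM DTT, 0.1% BSA, 2.5% DMSO). Reaction started with 2 μM ATP and run to about 50% ATP depletion. Remaining ATP measured by KinaseGlo luminescence.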

[2] = target: T1, FLT3D835Y kinase (Homo sapiens, UniProt P36888, D835Y); test: FLT3D835Y kinase inhibition assay (LanthaScreen TR-FRET); settings: read-out: FLT3 IC50
T1 sequence (P36888 27-993 D835Y): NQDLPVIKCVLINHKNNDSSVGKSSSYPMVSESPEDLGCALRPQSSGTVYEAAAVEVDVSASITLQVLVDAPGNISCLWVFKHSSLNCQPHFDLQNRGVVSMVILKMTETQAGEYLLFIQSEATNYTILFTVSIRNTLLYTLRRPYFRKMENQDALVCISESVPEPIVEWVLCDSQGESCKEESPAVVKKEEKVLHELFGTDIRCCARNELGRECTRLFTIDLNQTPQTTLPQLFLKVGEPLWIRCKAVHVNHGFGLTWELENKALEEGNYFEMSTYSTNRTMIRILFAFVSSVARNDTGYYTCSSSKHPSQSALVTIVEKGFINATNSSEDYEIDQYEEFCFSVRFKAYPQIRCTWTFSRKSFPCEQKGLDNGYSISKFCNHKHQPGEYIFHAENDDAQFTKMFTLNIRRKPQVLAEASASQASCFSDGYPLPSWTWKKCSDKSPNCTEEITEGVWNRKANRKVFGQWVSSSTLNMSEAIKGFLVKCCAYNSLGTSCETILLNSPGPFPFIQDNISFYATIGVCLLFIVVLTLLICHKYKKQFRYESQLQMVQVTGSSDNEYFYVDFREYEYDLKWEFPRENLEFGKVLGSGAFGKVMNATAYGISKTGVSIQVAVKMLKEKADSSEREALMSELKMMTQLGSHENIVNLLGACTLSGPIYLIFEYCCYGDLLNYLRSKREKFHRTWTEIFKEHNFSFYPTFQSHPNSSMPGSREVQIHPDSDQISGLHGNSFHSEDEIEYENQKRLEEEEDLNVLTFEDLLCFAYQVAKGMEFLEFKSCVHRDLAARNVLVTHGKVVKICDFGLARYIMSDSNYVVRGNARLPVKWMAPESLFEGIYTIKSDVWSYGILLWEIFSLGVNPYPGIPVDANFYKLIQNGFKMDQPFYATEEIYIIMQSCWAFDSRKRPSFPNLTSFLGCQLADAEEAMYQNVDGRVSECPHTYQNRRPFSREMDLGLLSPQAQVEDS
Summary of the method: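 TR-FRET with 5.7 nM FLT3D835Y, 50 nM polyEAY substrate, 2 μM ATP (f.c.), 3 mM Mg and 3 mM Mn in 50 mM TRIS-HCl pH 7.4 with DTT, Tween 20 and Na3VO4. Reaction 1 h, stopped with EDTA, then Tb-labeled P-20 antibody for 45 min; single end-point reading.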

[3] = target: PKCα (Homo sapiens, UniProt P17252); test: PKCα kinase Caliper assay; settings: PKCα Caliper assay; read-out: PKC IC50
Summary of the method: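 Eight-point compound dilutions incubated with PKCα and peptide/ATP for 60 min at 30° C in 50 mM HEPES pH 7.5, 1 mM DTT, 0.02% Tween20, 0.02% BSA, 0.6% DMSO. Activity from phospho-peptide formed, separated by microfluidic mobility shift.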

GSK3β, sequence (P49841 whole entry, species assumed): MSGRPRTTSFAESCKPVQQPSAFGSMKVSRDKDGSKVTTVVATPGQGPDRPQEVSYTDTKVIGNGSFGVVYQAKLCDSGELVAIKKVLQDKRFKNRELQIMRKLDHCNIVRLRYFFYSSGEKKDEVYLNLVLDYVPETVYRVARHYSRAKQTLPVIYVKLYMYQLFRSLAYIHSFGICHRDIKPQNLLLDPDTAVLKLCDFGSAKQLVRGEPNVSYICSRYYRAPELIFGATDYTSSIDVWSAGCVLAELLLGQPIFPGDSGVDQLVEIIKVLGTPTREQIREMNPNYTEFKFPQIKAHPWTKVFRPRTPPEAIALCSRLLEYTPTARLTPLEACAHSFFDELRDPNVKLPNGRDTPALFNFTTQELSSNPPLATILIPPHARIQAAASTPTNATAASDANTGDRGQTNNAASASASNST

Row | SMILES | IC50 [1] [nM] | IC50 [2] [nM] | IC50 [3] [nM]
1 | CC[C@H]1O[C@@H](c2ccncc2NC(=O)c2nc(-c3ccccc3)cnc2N)C[C@@H](N)[C@]1(C)O [Example 348, 3-amino-N-(4-((2R,4R,5S,6R)-4-amino-6-ethyl-5-hydroxy-5-methyltetrahydro-2H-pyran-2-yl)pyridin-3-yl)-6-phenylpyrazine-2-carboxamide] | 120 | 17 | 220
2 | Nc1ncc(-c2ccccc2)nc1C(=O)Nc1cnccc1[C@@H]1C[C@H](N)[C@@H](O)[C@H](C2CC2)O1 [Example 349, 3-amino-N-(4-((2S,4S,5R,6S)-4-amino-6-cyclopropyl-5-hydroxytetrahydro-2H-pyran-2-yl)pyridin-3-yl)-6-phenylpyrazine-2-carboxamide] | 100 | 250 | 140
3 | CC(C)(C)[C@H]1O[C@@H](c2ccncc2NC(=O)c2nc(-c3ccccc3)cnc2N)C[C@@H](N)[C@@H]1O [Example 354, 3-amino-N-(4-((2R,4R,5S,6R)-4-amino-6-tert-butyl-5-hydroxytetrahydro-2H-pyran-2-yl)pyridin-3-yl)-6-phenylpyrazine-2-carboxamide] | 3.2 | 3.1 | 22
4 | CC(C)(C)[C@@H]1O[C@H](c2ccncc2NC(=O)c2nc(-c3ccccc3)cnc2N)C[C@H](N)[C@H]1O [Example 355, 3-amino-N-(4-((2S,4S,5R,6S)-4-amino-6-tert-butyl-5-hydroxytetrahydro-2H-pyran-2-yl)pyridin-3-yl)-6-phenylpyrazine-2-carboxamide] | 170 | 2600 | 840
5 | CC(C)[C@H]1O[C@@H](c2ccncc2NC(=O)c2nc(-c3ccccc3)cnc2N)C[C@@H](N)[C@@H]1O [Example 356, 3-amino-N-(4-((2R,4R,5S,6R)-4-amino-5-hydroxy-6-isopropyltetrahydro-2H-pyran-2-yl)pyridin-3-yl)-6-phenylpyrazine-2-carboxamide] | 8.6 | 5.8 | 75

The remaining lines, values ahead:

Row | IC50 [1] [nM] | IC50 [2] [nM] | IC50 [3] [nM] | SMILES
6 | 570 | 770 | 1000 | C[C@@]1(O)[C@@H](N)C[C@@H](c2ccncc2NC(=O)c2nc(-c3ccccc3)cnc2N)O[C@H]1C1CC1 [Example 347, 3-amino-N-(4-((2S,4S,5R,6S)-4-amino-6-cyclopropyl-5-hydroxy-5-methyltetrahydro-2H-pyran-2-yl)pyridin-3-yl)-6-phenylpyrazine-2-carboxamide]
7 | 7.8 | 44 | 21 | C[C@@]1(O)[C@@H](N)C[C@@H](c2ccncc2NC(=O)c2nc(-c3ccccc3)cnc2N)OC12CC2 [Example 350, 3-amino-N-(4-((5S,7S,8R)-7-amino-8-hydroxy-8-methyl-4-oxaspiro[2.5]octan-5-yl)pyridin-3-yl)-6-phenylpyrazine-2-carboxamide]
8 | 5.3 | 2.5 | 55 | C[C@@]1(O)[C@H](N)C[C@@H](c2ccncc2NC(=O)c2nc(-c3ccccc3)cnc2N)OC12CC2 [Example 352, 3-amino-N-(4-((5S,7R,8R)-7-amino-8-hydroxy-8-methyl-4-oxaspiro[2.5]octan-5-yl)pyridin-3-yl)-6-phenylpyrazine-2-carboxamide]
9 | 25 | 95 | 84 | C[C@]1(O)[C@H](N)C[C@H](c2ccncc2NC(=O)c2nc(-c3ccccc3)cnc2N)OC12CC2 [Example 353, 3-amino-N-(4-((5R,7R,8S)-7-amino-8-hydroxy-8-methyl-4-oxaspiro[2.5]octan-5-yl)pyridin-3-yl)-6-phenylpyrazine-2-carboxamide]
